Laboratory results as given in PubChem BioAssay AID328 (DTP/NCI, 2004).
Where “and” joins values, the source holds several entries; their conditions need not be identical. Identical values can stand only once. Inconclusive results and toxic doses are left out.

Tested on: BDF1 mice, P388 leukemia ip, median survival T/C
Assay: NCI In Vivo Anticancer Drug Screen. Data for tumor model P388 Leukemia (intraperitoneal) in B6D2F1 (BDF1) mice
Conditions: endpoint: median survival time, higher = longer survival
Summary of the method: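 T/C = treated-group survival ÷ vehicle-control survival; tumour transplanted into mice before dosing.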

[1] = dose: 12.5 mg/kg/injection, schedule: Q01DX009 (ip), vehicle: saline with Tween-80
[2] = dose: 25.0 mg/kg/injection, schedule: Q01DX009 (ip), vehicle: saline with Tween-80
[3] = dose: 25.0 mg/kg/injection, schedule: Q04DX003 (ip), vehicle: saline with Tween-80
[4] = dose: 50.0 mg/kg/injection, schedule: Q01DX009 (ip), vehicle: saline with Tween-80
[5] = dose: 50.0 mg/kg/injection, schedule: Q04DX003 (ip), vehicle: saline with Tween-80
[6] = dose: 100.0 mg/kg/injection, schedule: Q01DX009 (ip), vehicle: saline with Tween-80
[7] = dose: 200.0 mg/kg/injection, schedule: Q01DX009 (ip), vehicle: saline with Tween-80
[8] = dose: 100.0 mg/kg/injection, schedule: Q04DX003 (ip), vehicle: saline with Tween-80
[9] = dose: 200.0 mg/kg/injection, schedule: Q04DX003 (ip), vehicle: saline with Tween-80
[10] = dose: 25.0 mg/kg/injection, schedule: Q01DX009 (ip), vehicle: saline
[11] = dose: 50.0 mg/kg/injection, schedule: Q01DX009 (ip), vehicle: saline
[12] = dose: 100.0 mg/kg/injection, schedule: Q04DX003 (ip), vehicle: saline
[13] = dose: 100.0 mg/kg/injection, schedule: Q01DX009 (ip), vehicle: Klucel (hydroxypropylcellulose) (HPC)
[14] = dose: 100.0 mg/kg/injection, schedule: Q04DX003 (ip), vehicle: Klucel (hydroxypropylcellulose) (HPC)
[15] = dose: 200.0 mg/kg/injection, schedule: Q01DX009 (ip), vehicle: Klucel (hydroxypropylcellulose) (HPC)
[16] = dose: 200.0 mg/kg/injection, schedule: Q04DX003 (ip), vehicle: Klucel (hydroxypropylcellulose) (HPC)
[17] = dose: 400.0 mg/kg/injection, schedule: Q01DX009 (ip), vehicle: Klucel (hydroxypropylcellulose) (HPC)
[18] = dose: 400.0 mg/kg/injection, schedule: Q01DX009 (ip), vehicle: saline with Tween-80
[19] = dose: 6.25 mg/kg/injection, schedule: Q01DX009 (ip), vehicle: saline with Tween-80
[20] = dose: 400.0 mg/kg/injection, schedule: Q04DX003 (ip), vehicle: Klucel (hydroxypropylcellulose) (HPC)

## c1cc2ccsc2cn1
[1]
  T/C: 103 % of control
[2]
  T/C: 92 % of control
[3]
  T/C: 95 % of control
[4]
  T/C: 92 % of control
[5]
  T/C: 91 % of control

## N=c1ccn2c(n1)OC1C(O)C(COS(=O)OC3C(CO)OC4C3Oc3nc(=N)ccn34)OC12 (configuration not stated)
[2]
  T/C: 122 % of control
[6]
  T/C: 161 % of control
[7]
  T/C: 175 % of control

## O=[N+]([O-])c1cc2c(c([N+](=O)[O-])c1)OCOC2
[2]
  T/C: 95 % of control
[4]
  T/C: 95 % of control
[6]
  T/C: 86 % of control
[8]
  T/C: 100 % of control
[9]
  T/C: 95 % of control

## CC[n+]1ccc2cc(OC)c(OC)cc2c1Cc1ccc(OC)c(OC)c1
[10]
  T/C: 109 % of control
[11]
  T/C: 118 % of control
dose: 50.0 mg/kg/injection, schedule: Q04DX003 (ip), vehicle: saline
  T/C: 90 % of control
[12]
  T/C: 104 % of control

## CC1(C)C2CCC([CH2][Hg][Cl])C1C2 (configuration not stated)
dose: 1.5 mg/kg/injection, schedule: Q01DX009 (ip), vehicle: Klucel (hydroxypropylcellulose) (HPC)
  T/C: 90 % of control
dose: 3.0 mg/kg/injection, schedule: Q01DX009 (ip), vehicle: Klucel (hydroxypropylcellulose) (HPC)
  T/C: 100 % of control
dose: 6.0 mg/kg/injection, schedule: Q01DX009 (ip), vehicle: Klucel (hydroxypropylcellulose) (HPC)
  T/C: 90 % of control
dose: 12.0 mg/kg/injection, schedule: Q01DX009 (ip), vehicle: Klucel (hydroxypropylcellulose) (HPC)
  T/C: 104 % of control
[2]
  T/C: 115 % of control

## O=C(O)c1sc(C(=O)O)c(-c2ccccc2)c1-c1ccccc1
dose: 6.25 mg/kg/injection, schedule: Q01DX009 (ip), vehicle: saline
  T/C: 89 % of control and 101 % of control
dose: 12.5 mg/kg/injection, schedule: Q01DX009 (ip), vehicle: saline
  T/C: 101 % of control and 115 % of control
[10]
  T/C: 87 % of control and 95 % of control
[4]
  T/C: 100 % of control
[11]
  T/C: 89 % of control and 100 % of control
[6]
  T/C: 100 % of control
[8]
  T/C: 90 % of control
[7]
  T/C: 100 % of control
[9]
  T/C: 95 % of control
dose: 400.0 mg/kg/injection, schedule: Q04DX003 (ip), vehicle: saline with Tween-80
  T/C: 104 % of control

## CCCCCCCCCCN(CCCCCCCCCC)C1CC(OC2CC(O)(C(C)=O)Cc3c(O)c4c(c(O)c32)C(=O)c2c(OC)cccc2C4=O)OC(C)C1O (configuration not stated)
dose: 37.5 mg/kg/injection, schedule: Q04DX003 (ip), vehicle: other
  T/C: 99 % of control
dose: 75.0 mg/kg/injection, schedule: Q04DX003 (ip), vehicle: other
  T/C: 103 % of control
dose: 150.0 mg/kg/injection, schedule: Q04DX003 (ip), vehicle: other
  T/C: 94 % of control
dose: 300.0 mg/kg/injection, schedule: Q04DX003 (ip), vehicle: other
  T/C: 99 % of control
dose: 400.0 mg/kg/injection, schedule: Q04DX003 (ip), vehicle: other
  T/C: 90 % of control

## COC1c2cnc(C)n2C=CN1C(C)=O (configuration not stated)
[12]
  T/C: 99 % of control
dose: 200.0 mg/kg/injection, schedule: Q04DX003 (ip), vehicle: saline
  T/C: 104 % of control
dose: 300.0 mg/kg/injection, schedule: Q04DX003 (ip), vehicle: saline
  T/C: 94 % of control

## [O]=[Sb]([c]1ccccc1)([c]1ccccc1)[c]1ccccc1
[3]
  T/C: 106 % of control
[5]
  T/C: 101 % of control
[8]
  T/C: 114 % of control

## Cc1ccc(S(=O)(=O)OC2CCC(C(C)(C)C)CC2Cl)cc1 (configuration not stated)
[13]
  T/C: 105 % of control
[14]
  T/C: 100 % of control
[15]
  T/C: 110 % of control
[16]
  T/C: 86 % of control
[17]
  T/C: 95 % of control

## O=C(OCCC(OC(=O)c1ccccc1)C(COC(=O)c1ccccc1)OC(=O)c1ccccc1)c1ccccc1 (configuration not stated)
[13]
  T/C: 87 % of control
[15]
  T/C: 95 % of control

## Nc1nnc(N)s1
dose: 100.0 mg/kg/injection, schedule: Q04DX003 (ip), vehicle: saline sonified
  T/C: 100 % of control
dose: 200.0 mg/kg/injection, schedule: Q04DX003 (ip), vehicle: saline sonified
  T/C: 100 % of control
dose: 400.0 mg/kg/injection, schedule: Q04DX003 (ip), vehicle: saline sonified
  T/C: 100 % of control

## O=c1c(N=Nc2ccccc2)c(O)n(-c2ccccc2)c(=S)n1-c1ccccc1
dose: 25.0 mg/kg/injection, schedule: Q01DX001 (ip), vehicle: saline with Tween-80
  T/C: 100 % of control
dose: 50.0 mg/kg/injection, schedule: Q01DX001 (ip), vehicle: saline with Tween-80
  T/C: 90 % of control
dose: 100.0 mg/kg/injection, schedule: Q01DX001 (ip), vehicle: saline with Tween-80
  T/C: 95 % of control

## CCC(=O)OC(C)COc1ccc(C(C)(C)C)cc1 (configuration not stated)
[6]
  T/C: 110 % of control
[7]
  T/C: 110 % of control
[18]
  T/C: 124 % of control

## Cc1c(O)ccc([N+](=O)[O-])c1O
[19]
  T/C: 91 % of control
dose: 6.25 mg/kg/injection, schedule: Q04DX003 (ip), vehicle: saline with Tween-80
  T/C: 104 % of control
[1]
  T/C: 100 % of control
dose: 12.5 mg/kg/injection, schedule: Q04DX003 (ip), vehicle: saline with Tween-80
  T/C: 91 % of control
[2]
  T/C: 91 % of control
[3]
  T/C: 104 % of control

## Nc1cc(/C=C/c2ccc([N+](=O)[O-])cc2)nc2ccccc12
dose: 25.0 mg/kg/injection, schedule: Q04DX002 (ip), vehicle: saline with Tween-80
  T/C: 101 % of control
[4]
  T/C: 88 % of control
dose: 50.0 mg/kg/injection, schedule: Q04DX002 (ip), vehicle: saline with Tween-80
  T/C: 117 % of control
[6]
  T/C: 94 % of control
[7]
  T/C: 94 % of control
dose: 200.0 mg/kg/injection, schedule: Q04DX002 (ip), vehicle: saline with Tween-80
  T/C: 88 % of control

## NCC1OC(OC2C(CO)OC(OC3C(O)C(N)CC(N)C3OC3OC(CO)C(O)C(O)C3N)C2O)C(N)C(O)C1O (configuration not stated)
dose: 100.0 mg/kg/injection, schedule: Q01DX009 (ip), vehicle: saline
  T/C: 104 % of control
dose: 200.0 mg/kg/injection, schedule: Q01DX009 (ip), vehicle: saline
  T/C: 106 % of control
dose: 400.0 mg/kg/injection, schedule: Q01DX009 (ip), vehicle: saline
  T/C: 97 % of control

## CC1(C)O[C@]2(C)CC[C@@H]1[C@H](O)[C@@H]2N1CCCC1
dose: 50.0 mg/kg/injection, schedule: Q01DX005 (ip), vehicle: saline with Tween-80
  T/C: 111 % of control
dose: 100.0 mg/kg/injection, schedule: Q01DX005 (ip), vehicle: saline with Tween-80
  T/C: 104 % of control

## CSc1ccccc1C(=O)NNS(=O)(=O)c1ccc(C)cc1
[14]
  T/C: 91 % of control
[16]
  T/C: 104 % of control
[20]
  T/C: 100 % of control

## CCCCCCCCCCCCCCOc1ccc(C=O)cc1OC
dose: 100.0 mg/kg/injection, schedule: Q01DX001 (ip), vehicle: Klucel (hydroxypropylcellulose) (HPC)
  T/C: 100 % of control
dose: 200.0 mg/kg/injection, schedule: Q01DX001 (ip), vehicle: Klucel (hydroxypropylcellulose) (HPC)
  T/C: 100 % of control
dose: 400.0 mg/kg/injection, schedule: Q01DX001 (ip), vehicle: Klucel (hydroxypropylcellulose) (HPC)
  T/C: 100 % of control

## CN(C)c1ccc(/C=C\C(=O)c2ccccc2)cc1
[13]
  T/C: 100 % of control
[15]
  T/C: 110 % of control
[17]
  T/C: 120 % of control

## CC(C)OC(CCCl)c1ccccc1 (configuration not stated)
dose: 75.0 mg/kg/injection, schedule: Q01DX009 (ip), vehicle: Klucel (hydroxypropylcellulose) (HPC)
  T/C: 95 % of control
[14]
  T/C: 100 % of control
dose: 150.0 mg/kg/injection, schedule: Q01DX009 (ip), vehicle: Klucel (hydroxypropylcellulose) (HPC)
  T/C: 109 % of control
[16]
  T/C: 96 % of control
dose: 300.0 mg/kg/injection, schedule: Q01DX009 (ip), vehicle: Klucel (hydroxypropylcellulose) (HPC)
  T/C: 109 % of control
[20]
  T/C: 100 % of control

## Nc1ccc(S(=O)(=O)N/N=C/c2ccccc2[N+](=O)[O-])cc1
[19]
  T/C: 95 % of control
[1]
  T/C: 100 % of control
[2]
  T/C: 101 % of control

## CCC(=O)c1cc(O)ccc1O
dose: 50.0 mg/kg/injection, schedule: Q01DX009 (ip), vehicle: other
  T/C: 106 % of control
dose: 100.0 mg/kg/injection, schedule: Q01DX009 (ip), vehicle: other
  T/C: 97 % of control

## CCOC(=O)CN(CC)C(=O)NC12CC3CC(CC(C3)C1)C2
[13]
  T/C: 100 % of control
[15]
  T/C: 103 % of control
[17]
  T/C: 102 % of control

## CCCCc1ccc(Sc2cccc3c2C(=O)c2c(Sc4ccc(CCCC)cc4)cccc2C3=O)cc1
[6]
  T/C: 95 % of control
[7]
  T/C: 90 % of control
[18]
  T/C: 95 % of control
